The text below walks through data of patent US20260226068A1, “IMIDAZOTRIAZINE IL-17A MODULATORS AND USES THEREOF” (DICE ALPHA, INC., priority 2023, published 2026).

One assay concerns the target T1, IL-17A/F (Homo sapiens, UniProt Q16552+Q96PD4).
T1 construct: purchased R&D Systems
T1 sequence (Q16552 24-155): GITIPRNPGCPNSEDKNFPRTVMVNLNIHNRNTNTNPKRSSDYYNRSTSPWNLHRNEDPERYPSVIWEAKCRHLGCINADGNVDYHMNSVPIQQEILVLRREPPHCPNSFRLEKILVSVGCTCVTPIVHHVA
T1 sequence (Q96PD4 31-163): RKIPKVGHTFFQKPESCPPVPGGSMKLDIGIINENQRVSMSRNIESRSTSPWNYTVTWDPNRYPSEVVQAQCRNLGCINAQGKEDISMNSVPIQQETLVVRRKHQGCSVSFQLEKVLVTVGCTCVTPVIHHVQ
The assay is described as follows: IL-17A/F HEK-Blue cell assay (SEAP reporter). It counts as cell-based. Particulars: HEK-Blue IL-17A reporter cells, IL17A/F 5 ng/mL, 20 hours, SEAP read at A630; read-out: HEK-Blue IL17AF (IC50 for IL-17A/F inhibition).

For another assay, the target named is T2, IL-17A/A (Homo sapiens, UniProt Q16552).
T2 construct: purchased Genscript Z03228
T2 sequence (Q16552 24-155): T1 sequence (Q16552 24-155)
The assay is described as follows: IL-17A/A HEK-Blue cell assay (SEAP reporter). Format: cell-based. The note with it: HEK-Blue IL-17A reporter cells, IL17A/A 5 ng/mL, 20 hours, SEAP read at A630; read-out: HEK-Blue IL17AA (IC50 for IL-17A/A inhibition).

Some results are limits rather than exact numbers.

`CCn1nccc1C(=O)N[C@H](c1cn2nc(CC3C[C@@H](C(F)(F)F)CNC3=O)c(N3CCO[C@@H](C)C3)nc2n1)[C@@H]1CCCC(F)(F)C1` (single isomer, unassigned) [Compound 208]: the IC50 on IL-17A/F was 100 to 1000 nM; at IL-17A/A, less than 100 nM.

As for `O=C(N[C@H](c1cn2nc(C[C@H]3C[C@@H](C(F)(F)F)CNC3=O)c(C3CCCOC3)nc2n1)[C@@H]1CCCC(F)(F)C1)c1nonc1C1CC1` (single isomer, unassigned) [Compound 209], the IC50 was greater than 1000 nM on IL-17A/F and less than 100 nM on IL-17A/A.

As to `O=C(N[C@H](c1cn2nc(C[C@H]3C[C@@H](C(F)(F)F)CNC3=O)c(C3CCCOC3)nc2n1)[C@@H]1CCCC(F)(F)C1)c1nonc1C1CC1` (single isomer, unassigned) [Compound 210], the IC50 at IL-17A/F was 100 to 1000 nM; at IL-17A/A, less than 100 nM.

As to `CCn1nccc1C(=O)N[C@@H](CCC(C)(C)C(F)(F)F)c1cn2nc(C[C@H]3C[C@@H](C(F)(F)F)CNC3=O)c(C3CCOCC3)nc2n1` (single isomer, unassigned) [Compound 217], the IC50 at IL-17A/F is greater than 1000 nM; at IL-17A/A it was less than 100 nM.

As for `CCn1nccc1C(=O)N[C@H](c1cn2nc(C[C@H]3C[C@@H](C(F)(F)F)CNC3=O)c(C[C@@H]3CCOC3)nc2n1)C1CCC(F)(F)CC1` (single isomer, unassigned) [Compound 224], the IC50 on IL-17A/F is 100 to 1000 nM; at IL-17A/A, less than 100 nM.

Regarding `CCn1nccc1C(=O)N[C@H](c1cn2nc(C[C@H]3C[C@@H](C(F)(F)F)CNC3=O)c(C[C@H]3CCOC3)nc2n1)C1CCC(F)(F)CC1` (single isomer, unassigned) [Compound 225], the IC50 at IL-17A/F was 100 to 1000 nM; at IL-17A/A, less than 100 nM.

Take `CCn1nccc1C(=O)N[C@H](c1cn2nc(C[C@H]3C[C@@H](C(F)(F)F)CNC3=O)c([C@@H](C)N3CCOCC3)nc2n1)C1CCC(F)(F)CC1` (single isomer, unassigned) [Compound 227]: the IC50 on IL-17A/F is 100 to 1000 nM; on IL-17A/A, less than 100 nM.

As for `CCn1nccc1C(=O)N[C@H](c1cn2nc(C[C@H]3C[C@@H](C(F)(F)F)CNC3=O)c(CN3CCOC[C@H]3C)nc2n1)C1CCC(F)(F)CC1` (single isomer, unassigned) [Compound 231], the figures for the IC50 at IL-17A/F and on IL-17A/A were 100 to 1000 nM and less than 100 nM, respectively.

As to `CCn1nccc1C(=O)N[C@H](c1cn2nc(C[C@H]3C[C@@H](C(F)(F)F)CNC3=O)c(CN3CCOCC3C)nc2n1)C1CCC(F)(F)CC1` (single isomer, unassigned) [Compound 232], the IC50 at IL-17A/F is 100 to 1000 nM; at IL-17A/A, less than 100 nM.

With `CCn1nccc1C(=O)N[C@H](c1cn2nc(C[C@H]3C[C@@H](C(F)(F)F)CNC3=O)c([C@H](C)C3CCOCC3)nc2n1)C1CCC(F)(F)CC1` (single isomer, unassigned) [Compound 251], the IC50 at IL-17A/F is greater than 1000 nM; at IL-17A/A it was less than 100 nM.

Consider `CCn1nccc1C(=O)N[C@H](c1cn2nc(C[C@H]3C[C@@H](C(F)(F)F)CNC3=O)c([C@@H](C)C3CCOCC3)nc2n1)C1CCC(F)(F)CC1` (single isomer, unassigned) [Compound 252], for which the IC50 at IL-17A/F was 100 to 1000 nM; on IL-17A/A, less than 100 nM.

As to `CCn1nccc1C(=O)N[C@H](c1cn2nc(C[C@H]3C[C@@H](C(F)(F)F)CNC3=O)c([C@@H]3CCC(C)(C)OC3)nc2n1)C1CCC(F)(F)CC1` (single isomer, unassigned) [Compound 256], the IC50 on IL-17A/F was 100 to 1000 nM; at IL-17A/A, less than 100 nM.

For the compound `CCn1nccc1C(=O)N[C@H](c1cn2nc(C[C@H]3C[C@@H](C(F)(F)F)CNC3=O)c([C@H]3COCCC3(F)F)nc2n1)C1CCC(F)(F)CC1` (single isomer, unassigned) [Compound 257], the results for the IC50 on IL-17A/F and on IL-17A/A were 100 to 1000 nM and less than 100 nM, respectively.

As to `CCn1nccc1C(=O)N[C@H](c1cn2nc(C[C@H]3C[C@@H](C(F)(F)F)CNC3=O)c([C@H]3CCC(C)(C)OC3)nc2n1)C1CCC(F)(F)CC1` (single isomer, unassigned) [Compound 258], the values for the IC50 on IL-17A/F and at IL-17A/A were 100 to 1000 nM and less than 100 nM, respectively.

For `CCn1nccc1C(=O)N[C@H](c1cn2nc(C[C@H]3C[C@@H](C(F)(F)F)CNC3=O)c(C3COCCC3(F)F)nc2n1)C1CCC(F)(F)CC1` (single isomer, unassigned) [Compound 259], the IC50 on IL-17A/F and on IL-17A/A was less than 100 nM in each case.

As to `Cn1nccc1C(=O)N[C@H](c1cn2nc(C[C@H]3C[C@@H](C(F)(F)F)CNC3=O)c([C@H]3CCCOC3)nc2n1)C1CCC(F)(F)CC1` (single isomer, unassigned) [Compound 263], the IC50 at IL-17A/F was greater than 1000 nM; on IL-17A/A it was less than 100 nM.

Regarding `Cn1nccc1C(=O)N[C@H](c1cn2nc(C[C@H]3C[C@@H](C(F)(F)F)CNC3=O)c([C@@H]3CCCOC3)nc2n1)C1CCC(F)(F)CC1` (single isomer, unassigned) [Compound 264], the IC50 on IL-17A/F was 100 to 1000 nM; at IL-17A/A it was less than 100 nM.

`Cc1nonc1C(=O)N[C@H](c1cn2nc(C[C@H]3C[C@@H](C(F)(F)F)CNC3=O)c(C3CCCOC3)nc2n1)C1CCC(F)(F)CC1` (single isomer, unassigned) [Compound 265]: the IC50 on IL-17A/F was greater than 1000 nM; at IL-17A/A it was less than 100 nM.

Consider `Cc1nonc1C(=O)N[C@H](c1cn2nc(C[C@H]3C[C@@H](C(F)(F)F)CNC3=O)c([C@@H]3CCCOC3)nc2n1)C1CCC(F)(F)CC1` (single isomer, unassigned) [Compound 266], for which the IC50 is greater than 1000 nM at IL-17A/F and less than 100 nM on IL-17A/A.

For the compound `Cn1nccc1C(=O)N[C@H](c1cn2nc(C[C@H]3C[C@@H](C(F)(F)F)CNC3=O)c([C@H]3CCCOC3)nc2n1)[C@H]1CCCC(F)(F)C1` (single isomer, unassigned) [Compound 267], the results for the IC50 at IL-17A/F and on IL-17A/A were 100 to 1000 nM and less than 100 nM, respectively.

Turning to `Cn1nccc1C(=O)N[C@H](c1cn2nc(C[C@H]3C[C@@H](C(F)(F)F)CNC3=O)c([C@@H]3CCCOC3)nc2n1)[C@H]1CCCC(F)(F)C1` (single isomer, unassigned) [Compound 268], the IC50 is 100 to 1000 nM at IL-17A/F and less than 100 nM at IL-17A/A.

Turning to `CCn1nccc1C(=O)N[C@H](c1cn2nc(C[C@H]3C[C@@H](C(F)(F)F)CNC3=O)c(C3CCCC(F)(F)C3)nc2n1)C1CCC(F)(F)CC1` (single isomer, unassigned) [Compound 271], the IC50 is 100 to 1000 nM on IL-17A/F and less than 100 nM at IL-17A/A.

With `CCn1nccc1C(=O)N[C@H](c1cn2nc(C[C@H]3C[C@@H](C(F)(F)F)CNC3=O)c([C@@H]3CCCC(F)(F)C3)nc2n1)C1CCC(F)(F)CC1` (single isomer, unassigned) [Compound 272], the IC50 at IL-17A/F and on IL-17A/A was less than 100 nM each time.

On to `Cc1nonc1C(=O)N[C@H](c1cn2nc(C[C@H]3C[C@@H](C(F)(F)F)CNC3=O)c([C@H]3CCOC3)nc2n1)C1CCC(F)(F)CC1` (single isomer, unassigned) [Compound 274], for which the IC50 on IL-17A/F is greater than 1000 nM; at IL-17A/A, less than 100 nM.

Take `Cc1nonc1C(=O)N[C@H](c1cn2nc(C[C@H]3C[C@@H](C(F)(F)F)CNC3=O)c([C@@H]3CCOC3)nc2n1)C1CCC(F)(F)CC1` (single isomer, unassigned) [Compound 275]: the IC50 at IL-17A/F is greater than 1000 nM; on IL-17A/A, less than 100 nM.

As to `CCn1nccc1C(=O)N[C@H](c1cn2nc(C[C@H]3C[C@@H](C(F)(F)F)CNC3=O)c(C3CCN(C)C3)nc2n1)C1CCC(F)(F)CC1` (single isomer, unassigned) [Compound 285], the IC50 is greater than 1000 nM at IL-17A/F and 100 to 1000 nM at IL-17A/A.

Take `CCn1nccc1C(=O)N[C@H](c1cn2nc(C[C@H]3C[C@@H](C(F)(F)F)CNC3=O)c(C3CCOCC3)nc2n1)[C@@H]1CC[C@@H]2C[C@@H]2CC1` (single isomer, unassigned) [Compound 293]: the IC50 at IL-17A/F and at IL-17A/A was less than 100 nM in each case.

For the compound `CCn1nccc1C(=O)N[C@H](c1cn2nc(C[C@H]3C[C@@H](C(F)(F)F)CNC3=O)c(C3CCOCC3)nc2n1)C1CC[C@@H]2C[C@@H]2CC1` (single isomer, unassigned) [Compound 294], the IC50 at IL-17A/F and on IL-17A/A was less than 100 nM in each case.

As for `CCn1nccc1C(=O)N[C@H](c1cn2nc(C[C@H]3C[C@@H](C(F)(F)F)CNC3=O)c([C@H]3CCOC3)nc2n1)C(C1CC1)C1CC1` (single isomer, unassigned) [Compound 321], the IC50 on IL-17A/F was 100 to 1000 nM; at IL-17A/A it was less than 100 nM.

`CCn1nccc1C(=O)N[C@H](c1cn2nc(C[C@H]3C[C@@H](C(F)(F)F)CNC3=O)c([C@@H]3CCOC3)nc2n1)C(C1CC1)C1CC1` (single isomer, unassigned) [Compound 322]: the IC50 on IL-17A/F is 100 to 1000 nM; on IL-17A/A, less than 100 nM.

On to `CCn1nccc1C(=O)N[C@H](c1cn2nc(C[C@H]3C[C@@H](C(F)(F)F)CNC3=O)c([C@@H]3CCCCN3)nc2n1)C1CCC(F)(F)CC1` (single isomer, unassigned) [Compound 324], for which the IC50 on IL-17A/F is greater than 1000 nM; on IL-17A/A, 100 to 1000 nM.

Take `CCn1nccc1C(=O)N[C@H](c1cn2nc(C[C@H]3C[C@@H](C(F)(F)F)CNC3=O)c([C@H]3CCCCN3)nc2n1)C1CCC(F)(F)CC1` (single isomer, unassigned) [Compound 325]: the figures for the IC50 on IL-17A/F and on IL-17A/A were greater than 1000 nM and 100 to 1000 nM, respectively.

For `CCn1nccc1C(=O)N[C@H](c1cn2nc(C[C@H]3C[C@@H](C(F)(F)F)CNC3=O)c([C@@H]3CN(C)CCO3)nc2n1)C1CCC(F)(F)CC1` (single isomer, unassigned) [Compound 376], the figures for the IC50 at IL-17A/F and at IL-17A/A were greater than 1000 nM and less than 100 nM, respectively.
